Here are results for 21 molecules from patent US10538498B2, “1,3,4-oxadiazole sulfonamide derivative compounds as histone deacetylase 6 inhibitor, and the pharmaceutical composition comprising the same” (Chong Kun Dang Pharmaceutical Corp., priority 2015, dated 2020).

The test deals with T1, human recombinant HDAC6 (Homo sapiens, UniProt Q9UBN7).
T1 construct: purchased Calbiochem 382180
T1 sequence (Q9UBN7 1-1215): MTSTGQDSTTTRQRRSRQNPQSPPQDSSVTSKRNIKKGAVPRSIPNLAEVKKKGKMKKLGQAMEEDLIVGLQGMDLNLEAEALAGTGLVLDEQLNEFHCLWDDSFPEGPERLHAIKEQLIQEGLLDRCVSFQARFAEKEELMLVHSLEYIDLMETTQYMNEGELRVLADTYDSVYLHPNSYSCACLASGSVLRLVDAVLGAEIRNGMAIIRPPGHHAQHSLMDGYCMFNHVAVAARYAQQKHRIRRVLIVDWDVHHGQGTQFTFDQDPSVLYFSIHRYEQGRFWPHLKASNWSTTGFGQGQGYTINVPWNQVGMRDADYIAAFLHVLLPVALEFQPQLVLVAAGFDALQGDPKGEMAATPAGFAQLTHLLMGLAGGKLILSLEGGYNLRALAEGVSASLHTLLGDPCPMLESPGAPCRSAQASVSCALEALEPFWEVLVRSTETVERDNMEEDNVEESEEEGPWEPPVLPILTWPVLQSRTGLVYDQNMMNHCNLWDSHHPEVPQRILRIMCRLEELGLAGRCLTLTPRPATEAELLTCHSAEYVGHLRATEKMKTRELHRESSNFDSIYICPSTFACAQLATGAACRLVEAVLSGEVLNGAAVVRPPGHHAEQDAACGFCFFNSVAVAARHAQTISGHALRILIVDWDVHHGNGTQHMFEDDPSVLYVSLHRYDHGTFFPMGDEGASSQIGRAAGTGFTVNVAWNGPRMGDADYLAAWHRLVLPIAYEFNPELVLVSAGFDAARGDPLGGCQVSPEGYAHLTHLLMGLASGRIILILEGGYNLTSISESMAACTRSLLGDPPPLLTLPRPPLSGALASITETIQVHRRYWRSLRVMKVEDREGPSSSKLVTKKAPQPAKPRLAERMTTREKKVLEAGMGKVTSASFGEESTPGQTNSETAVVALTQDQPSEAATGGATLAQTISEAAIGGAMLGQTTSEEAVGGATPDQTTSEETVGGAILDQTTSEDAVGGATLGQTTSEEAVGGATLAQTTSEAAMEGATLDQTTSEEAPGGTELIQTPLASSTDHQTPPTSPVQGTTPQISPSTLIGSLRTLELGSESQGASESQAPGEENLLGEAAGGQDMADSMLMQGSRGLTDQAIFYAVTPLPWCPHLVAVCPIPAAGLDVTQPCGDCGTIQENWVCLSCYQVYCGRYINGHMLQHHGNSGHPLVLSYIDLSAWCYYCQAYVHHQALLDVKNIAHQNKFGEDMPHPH
Put plainly: HDAC6 enzyme activity inhibition assay (HDAC Fluorimetric Drug Discovery Kit). Format: biochemical. As to conditions: for HDAC6 selectivity (fold): HDAC1 vs HDAC6; for IC50: same protocol as the HDAC1 enzyme activity test. In short, it runs like this:
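IC50s derived from fluorescence (Ex 360, Em 460) read after a 30-min developer step. Beforehand, compounds in 5-fold dilution series reacted 60 min at 30° C with 0.3 μg human recombinant enzyme and 10 μM Fluor de Lys-SIRT1 substrate.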

Molecules are shown by their SMILES.

What is called IC50 is the point on the concentration scale where inhibition reaches its midpoint. Consider `COCC(C)CS(=O)(=O)N(Cc1ccc(-c2nnc(C(F)F)o2)cc1F)c1ccccc1` (stereo not drawn) [Compound 11288], for which the “HDAC6 selectivity (fold)” value amounted to 2128 fold and the IC50 was 47 nM.
The like results for `CN(C)CCCS(=O)(=O)N(Cc1ccc(-c2nnc(C(F)F)o2)cc1)c1ccccc1` [Compound 11685, N-(4-(5-(difluoromethyl)-1,3,4-oxadiazol-2-yl)benzyl)-3-(dimethylamino)-N-phenylpropane-1-sulfonamide] were, in that order, 5882 fold and 17 nM.
For `CS(=O)(=O)N(Cc1ccc(-c2nnc(C(F)(F)F)o2)c(F)c1)c1cccnc1` [Compound 11133, N-(3-fluoro-4-(5-(trifluoromethyl)-1,3,4-oxadiazol-2-yl)benzyl)-N-(pyridin-3-yl)methanesulfonamide], the “HDAC6 selectivity (fold)” value was determined as 290 fold and the IC50 was found to be 345 nM.
In the same order, the values of `O=S(=O)(CCN1CCN(c2ccncc2)CC1)N(Cc1ccc(-c2nnc(C(F)F)o2)cc1)c1ccccc1` [Compound 11768, N-(4-(5-(difluoromethyl)-1,3,4-oxadiazol-2-yl)benzyl)-N-phenyl-2-(4-(pyridin-4-yl)piperazin-1-yl)ethane-1-sulfonamide] are 2610 fold and 38.3 nM.
`Cn1c(=O)n(C)c2cc(N(Cc3ccc(-c4nnc(C(F)F)o4)cc3)S(C)(=O)=O)ccc21` [Compound 11745, N-(4-(5-(difluoromethyl)-1,3,4-oxadiazol-2-yl)benzyl)-N-(1,3-dimethyl-2-oxo-2,3-dihydro-1H-benzo[d]imidazol-5-yl) methanesulfonamide]: the “HDAC6 selectivity (fold)” value was determined as 432 fold and the IC50 came out at 231 nM.
In the same order, the values of `CS(=O)(=O)N(Cc1ccc(-c2nnc(C(F)F)o2)cc1F)c1ccc2c(c1)CCC2` [Compound 11747, N-(4-(5-(difluoromethyl)-1,3,4-oxadiazol-2-yl)-2-fluorobenzyl)-N-(2,3-dihydro-1H-inden-5-yl)methanesulfonamide] are 1050 fold and 95.2 nM.
As to `O=S1(=O)CCC(S(=O)(=O)N(Cc2ccc(-c3nnc(C(F)(F)F)o3)cc2F)c2cccc(F)c2)CC1` [Compound 11255, N-(2-fluoro-4-(5-(trifluoromethyl)-1,3,4-oxadiazol-2-yl)benzyl)-N-(3-fluorophenyl)tetrahydro-2H-thiopyran-4-sulfonamide 1,1-dioxide], the “HDAC6 selectivity (fold)” value is reported as 2128 fold and the IC50 is 47 nM.
`O=C(C1CC1)N1CC(N2CCC(S(=O)(=O)N(Cc3ccc(-c4nnc(C(F)F)o4)cc3)c3cccc(Cl)c3)CC2)C1` [Compound 11783, N-(3-chlorophenyl)-1-(1-(cyclopropanecarbonyl)azetidin-3-yl)-N-(4-(5-(difluoromethyl)-1,3,4-oxadiazol-2-yl)benzyl)piperidine-4-sulfonamide]: the “HDAC6 selectivity (fold)” value was found to be 1440 fold and the IC50 was 69.4 nM.
As for `CCS(=O)(=O)N(Cc1ccc(-c2nnc(C(F)F)o2)cc1F)c1cccc2c1cnn2C` [Compound 11520, N-(4-(5-(difluoromethyl)-1,3,4-oxadiazol-2-yl)-2-fluorobenzyl)-N-(1-methyl-1H-indazol-4-yl)ethanesulfonamide], the “HDAC6 selectivity (fold)” value stood at 3125 fold and the IC50 is 32 nM.
For `CN1CCN(CCS(=O)(=O)N(Cc2ccc(-c3nnc(C(F)F)o3)cc2F)c2ccc(F)c(Cl)c2)CC1` [Compound 11552, N-(3-chloro-4-fluorophenyl)-N-(4-(5-(difluoromethyl)-1,3,4-oxadiazol-2-yl)-2-fluorobenzyl)-2-(4-methylpiperazin-1-yl)ethane-1-sulfonamide], the “HDAC6 selectivity (fold)” value amounted to 7143 fold and the IC50 was found to be 14 nM.
Regarding `CS(=O)(=O)N(Cc1ccc(-c2nnc(C(F)(F)F)o2)cc1F)c1ccccc1C(F)(F)F` [Compound 11218, N-(2-fluoro-4-(5-(trifluoromethyl)-1,3,4-oxadiazol-2-yl)benzyl)-N-(2-(trifluoromethyl)phenyl)methanesulfonamide], the “HDAC6 selectivity (fold)” value is recorded as 429 fold and the IC50 was 233 nM.
The like results for `CC(=O)N1CCN(CCS(=O)(=O)N(Cc2ccc(-c3nnc(C(F)F)o3)cc2F)c2ccc(F)c(Cl)c2)CC1` [Compound 11553, 2-(4-acetylpiperazin-1-yl)-N-(3-chloro-4-fluorophenyl)-N-(4-(5-(difluoromethyl)-1,3,4-oxadiazol-2-yl)-2-fluorobenzyl)ethane-1-sulfonamide] were, in that order, 5882 fold and 17 nM.
On to `O=S(=O)(CCCN1CCC(F)C1)N(Cc1ccc(-c2nnc(C(F)F)o2)cc1)c1ccccc1` (stereo in doubt) [Compound 11724, (R)—N-(4-(5-(difluoromethyl)-1,3,4-oxadiazol-2-yl)benzyl)-3-(3-fluoropyrrolidin-1-yl)-N-phenylpropane-1-sulfonamide], for which the “HDAC6 selectivity (fold)” value was 741 fold and the IC50 was found to be 135 nM.
The like results for `CCS(=O)(=O)N(Cc1ccc(-c2nnc(C(F)F)o2)cn1)c1cccc2c1cnn2C` [Compound 11539, N-((5-(5-(difluoromethyl)-1,3,4-oxadiazol-2-yl)pyridin-2-yl)methyl)-N-(1-methyl-1H-indazol-4-yl)ethanesulfonamide] were, in that order, 4348 fold and 23 nM.
In the same order, the values of `CC(=O)N1Cc2ccc(N(Cc3ccc(-c4nnc(C(F)F)o4)cc3)S(C)(=O)=O)cc2C1` [Compound 11732, N-(2-acetylisoindolin-5-yl)-N-(4-(5-(difluoromethyl)-1,3,4-oxadiazol-2-yl)benzyl)methanesulfonamide] are 184 fold and 542 nM.
As for `CS(=O)(=O)N1CCN(CCS(=O)(=O)N(Cc2ccc(-c3nnc(C(F)F)o3)cc2)c2ccccc2)CC1` [Compound 11634, N-(4-(5-(difluoromethyl)-1,3,4-oxadiazol-2-yl)benzyl)-2-(4-(methylsulfonyl)piperazin-1-yl)-N-phenylethane-1-sulfonamide], the “HDAC6 selectivity (fold)” value stood at 2083 fold and the IC50 stood at 48 nM.
In the same order, the values of `CC(C)N1CC(N2CCC(S(=O)(=O)N(Cc3ccc(-c4nnc(C(F)F)o4)cc3)c3cccc(Cl)c3)CC2)C1` [Compound 11778, N-(3-chlorophenyl)-N-(4-(5-(difluoromethyl)-1,3,4-oxadiazol-2-yl)benzyl)-1-(1-isopropylazetidin-3-yl)piperidine-4-sulfonamide] are 2724 fold and 36.7 nM.
For the molecule `O=S(=O)(CCN1CCC(O)CC1)N(Cc1ccc(-c2nnc(C(F)F)o2)cc1)c1ccccc1` [Compound 11822, N-(4-(5-(difluoromethyl)-1,3,4-oxadiazol-2-yl)benzyl)-2-(4-hydroxypiperidin-1-yl)-N-phenylethane-1-sulfonamide], the “HDAC6 selectivity (fold)” value is reported as 1365 fold and the IC50 came to 73.3 nM.
The like results for `CS(=O)(=O)N(Cc1ccc(-c2nnc(C(F)F)o2)cc1F)C1CCCCC1` [Compound 11292, N-cyclohexyl-N-(4-(5-(difluoromethyl)-1,3,4-oxadiazol-2-yl)-2-fluorobenzyl)methanesulfonamide] were, in that order, 1786 fold and 56 nM.
Turning to `Cc1cccc(N(Cc2ccc(-c3nnc(C(F)F)o3)cc2)S(=O)(=O)C2CCN(C3CCOCC3)CC2)c1` [Compound 11699, N-(4-(5-(difluoromethyl)-1,3,4-oxadiazol-2-yl)benzyl)-1-(tetrahydro-2H-pyran-4-yl)-N-(m-tolyl)piperidine-4-sulfonamide], the “HDAC6 selectivity (fold)” value was 776 fold and the 50% inhibitory concentration (IC50) worked out at 129 nM.
For `CC(=O)N1CC(N2CCC(S(=O)(=O)N(Cc3ccc(-c4nnc(C(F)F)o4)cc3F)c3ccc(F)c(Cl)c3)CC2)C1` [Compound 11447, 1-(1-acetylazetidin-3-yl)-N-(3-chloro-4-fluorophenyl)-N-(4-(5-(difluoromethyl)-1,3,4-oxadiazol-2-yl)-2-fluorobenzyl)piperidine-4-sulfonamide], the “HDAC6 selectivity (fold)” value is 5556 fold and the IC50 worked out at 18 nM.
